In patent publication US8685981B2, “Cyclic compound having hetero atom” (Daiichi Sankyo Company, Limited, priority 2009, dated 2014):

These compounds were tested on ST2 cells, murine bone marrow-derived stromal cells (assay: Osteoblast differentiation test (alkaline phosphatase activity)). Details: Mus musculus, ST-2, 96 h, at 0.03 μg/mL, four days of culturing, control group (0.1% DMSO) set at 100%, read-out: increase (%) in alkaline phosphatase activity.
Type: cell-based
Procedure: ST2 cells, murine bone marrow-derived stromal cells, (obtained from RIKEN) were used.
In this test, α-MEM media (obtained from GIBCO BRL Cat. No. 10370-021) containing 10% (v/v) of inactivated calf serum (obtained from Hyclone Laboratories, Inc.) and 1% (v/v) of Penicillin-Streptomycin Liquid (obtained from GIBCO BRL Cat. No. 15140-122) (hereinbelow, abbreviated as 10%-FBS-αMEM) were used. In this test, all culturing was performed in a CO2 incubator (37° C., 95% humidity, 5% CO2).
The aforementioned cells were detached with 2 mL of a 0.25% trypsin solution (obtained from GIBCO BRL Cat. No. 15050-065) and dispersed in 10 mL of 10%-FBS-αMEM. Subsequently, the cells were collected by centrifugation (25° C., 800 rpm, five minutes). Then, a cell suspension containing 40000 of the cells/mL of 10%-FBS-αMEM was prepared. The cell suspension was then dispensed into 96-well plates (the product of Falcon), 100 μL per well, at a density of 4000 cells/well, followed by culturing for 24 hours. To the wells except for the below-described well containing a control group, the compound was dispensed at final concentrations of 0.01, 0.03, 0.1, and 0.3 μg/ml. To the well of a control group, DMSO was dispensed at a final concentration of 0.1% (v/v). After four days of culturing, the activity of alkaline phosphatase (ALP) was measured in each group.
The measurement of ALP activity was performed as follows. That is, the medium in each well of the culture plates was completely removed. Each well was then washed by dispensing 100 μL of Dulbecco's phosphate buffer (obtained from GIBCO BRL Cat. No. 14190-144) and then removing it. A cell lysate solution containing 10 mM MgCl2 and 2% (v/v) TritonX-100 (Sigma) was prepared and dispensed at 50 μL/well, followed by stirring at room temperature for five minutes. An ALP substrate solution containing 50 mM diethanolamine (Wako pure chemical industries, Ltd., Cat. No. 099-03112) and 20 mM p-nitrophenyl phosphate (Wako pure chemical industries, Ltd., Cat. No. 147-02343) was prepared and dispensed at 50 μL/well, and the plates were left to stand at room temperature for 10 minutes. Subsequently, absorbance was measured by a microplate reader (Bio-Rad Laboratories, Inc.). Setting the measurement value of the control group of each plate at 100%, the increase (%) in alkaline phosphatase activity in the test compound-addition group was calculated, which was assessed as the degree of osteoblast differentiation.

Structure (SMILES)	activity at 0.03 µg/mL
NC(=O)c1ccc2cncc(N3CCC(OCC(=O)N4CCOCC4)CC3)c2n1 [Example 100]	≥ 200%
NC(=O)c1ccc2cncc(N3CCC(COCCOC4CCOCC4)CC3)c2n1 [Example 110]	≥ 200%
NC(=O)c1ccc2cncc(N3CCC(OCCOCCO)CC3)c2c1 [Example 85]	≥ 200%
CN(C)S(=O)(=O)CCOC1CCN(c2cncc3ccc(C(N)=O)cc23)CC1 [Example 106]	≥ 200%
COCC1CCCN(c2cncc3ccc(C(N)=O)cc23)C1 (stereo not shown) [Example 17, 4-[3-(Methoxymethyl)piperidin-1-yl]isoquinoline-6-carboxamide]	≥ 200%
NC(=O)c1ccc2cncc(N3CCN(C(=O)N4CCCC4)CC3)c2n1 [Example 114]	≥ 200%
NC(=O)c1ccc2cncc(N3CCC(OCCOC4CCCCO4)CC3)c2c1 (stereo not shown) [Example 19, 4-{4-[2-(Tetrahydro-2H-pyran-2-yloxy)ethoxy]piperidin-1-yl}isoquinoline-6-carboxamide]	≥ 200%
COCCOC1CCN(c2cncc3ccc(C(N)=O)nc23)CC1 [Example 1, 8-[4-(2-Methoxyethoxy)piperidin-1-yl]-1,6-naphthyridine-2-carboxamide]	≥ 200%
NC(=O)c1ccc2cncc(-n3cccc3)c2c1 [Example 34]	≥ 200%
NC(=O)c1ccc2cncc(N3CCN(c4cccc(F)c4)CC3)c2n1 [Example 32]	≥ 200%
CC1CCN(c2cncc3ccc(C(N)=O)cc23)CC1 [Example 47]	≥ 200%
COCC1CCCN(c2cncc3ccc(C(N)=O)nc23)C1 (stereo not shown) [Example 11, 8-[3-(Methoxymethyl)piperidin-1-yl]-1,6-naphthyridine-2-carboxamide]	≥ 200%
CC(=O)c1ccc(N2CCN(c3cncc4ccc(C(N)=O)cc34)CC2)cc1 [Example 50]	≥ 200%
CCOC1CCCN(c2cncc3ccc(C(N)=O)cc23)C1 (stereo not shown) [Example 38]	≥ 200%
NC(=O)c1ccc2cncc(N3CCC(OC4CCCCO4)CC3)c2c1 (stereo not shown) [Example 75]	≥ 200%
NC(=O)c1ccc2cncc(N3CCC(OCCOC4CCOC4)CC3)c2n1 (stereo not shown) [Example 117]	≥ 200%

Structure (SMILES)	activity at 0.03 µg/mL
NC(=O)c1ccc2cncc(N3CCCC(CO)C3)c2c1 (stereo not shown) [Example 56]	≥ 200%
NC(=O)c1ccc2cncc(N3CCN(c4ccccc4)CC3)c2n1 [Example 28]	≥ 200%
CC1CCN(c2cncc3ccc(C(N)=O)cc23)C1 (stereo not shown) [Example 72]	≥ 200%
NC(=O)c1ccc2cncc(N3CCCCC3)c2c1 [Example 16, 4-(Piperidin-1-yl)isoquinoline-6-carboxamide]	≥ 200%
NC(=O)c1ccc2cncc(N3CC[C@@H]4CCCC[C@H]4C3)c2c1 [Example 67]	≥ 200%
COCC1CCN(c2cncc3ccc(C(N)=O)cc23)C1 (stereo not shown) [Example 73]	≥ 200%
CC(=O)N1CCN(c2cncc3ccc(C(N)=O)cc23)CC1 [Example 79]	≥ 200%
COCCC1CCCN(c2cncc3ccc(C(N)=O)cc23)C1 (stereo not shown) [Example 41]	≥ 200%
Cc1ccn(-c2cncc3ccc(C(N)=O)cc23)c1 [Example 66]	≥ 200%
NC(=O)c1ccc2cncc(N3CCC(OCCS(=O)(=O)N4CCOCC4)CC3)c2n1 [Example 92]	≥ 200%
NC(=O)c1ccc2cncc(N3CCC(O)(c4ccccc4)CC3)c2c1 [Example 23, 4-(4-Hydroxy-4-phenylpiperidin-1-yl)isoquinoline-6-carboxamide]	≥ 200%
NC(=O)c1ccc2cncc(N3CCC(OCCS(=O)(=O)N4CCOCC4)CC3)c2c1 [Example 97]	≥ 200%
NC(=O)c1ccc2cncc(N3CCC(OCC(=O)N4CCOCC4)CC3)c2c1 [Example 93]	≥ 200%
COC[C@H]1CCCN(c2cncc3ccc(C(N)=O)cc23)C1 [Example 39]	≥ 200%
COCC1CN(c2cncc3ccc(C(N)=O)cc23)CCC1OC (stereo not shown) [Example 109]	≥ 200%
